From PMC9724248, “Anticancer peptide Q7 suppresses the growth and migration of human endometrial cancer by inhibiting DHCR24 expression and modulating the AKT-mediated pathway” (International Journal of Medical Sciences, 2022)
Like-named read-outs stand apart in the source and are kept apart here. Where no end group is shown, it is not given here.

Key:
Format in all cases: cell-based, human
[1] = test system: HEC-1-A cells; experiment: MTT cytotoxicity of anticancer peptides
Description: (§1) Cells were seeded into 96-well tissue culture plates at a concentration of 1×10^4 cells/200 μl/well overnight. Subsequently, the cells were treated with serial dilutions of ACP, scrambled ACP, or non-ACP. After 48 h of incubation, the cell viability of each line was determined by the MTT colorimetric assay (Sigma-Aldrich).

[2] = test system: HUVEC; conditions: MTT, 48 h, mean ± SD, ND: no detection, read-out: IC50 (50% decrease of cell viability)
Description: as §1

[3] = test system: HEC-1-A cells; experiment: Wound healing assay (Culture-Insert); conditions: peptides 50 µM, 24 h
Description: HEC-1-A cells (3×10^4 cells/70 μl/well) were seeded into a Culture-Insert 2 well (Ibidi, Munich, Germany) overnight. Afterward, inserts were removed, peptides (50 µM) were added, the status of the scratch wounds was monitored using an inverted microscope at 0 h (removal of Culture-Insert) and 24 h, and representative images were collected. The results were presented as the percentage of wound closure, calculated as follows: [wound area (initial) - wound area (final)]/wound area (initial)×100. The wound area was measured using software image J.

[4] = test system: AKT; experiment: Western blot of AKT phosphorylation; conditions: HEC-1-A, 100 µM, 6 h (Fig. S3)
Description: The cells were lysed on ice with 100 μl of lysis buffer and centrifuged at 13,000 g for 20 min at 4 °C. The lysate proteins were quantified using BCA Protein Assay Reagent. Each sample load comprised 30 μg total proteins per lane and was resolved by 12.5% SDS-PAGE. After being transferred onto the PVDF membranes, the membranes were blocked with 5% skimmed dried milk for 1 h and incubated overnight with primary antibodies, including anti-DHCR24, anti-AKT, anti-pAKT, anti-p-GSK3beta, anti-mTOR, and anti-p-mTOR (dilution: 1:1,000; Thermo); anti-S6K1, anti-p-p53, anti-cyclin D1, and anti-cleaved caspase 3 (dilution: 1:500; Thermo); anti-pS6K1 (dilution: 1:2,000; Thermo); anti-p53 and anti-GSK3beta (dilution: 1:200; Thermo); anti-BAX (dilution: 1:2,000; Thermo); anti-p-FoxO3A, anti-HIF-1α, and anti-actin (dilution: 1:1,500; GeneTex Inc., Irvine, CA, USA). The membrane was then washed and incubated with anti-rabbit IgG secondary antibodies followed by horseradish peroxidase. The protein expressions were visualized with an ECL kit (Pierce, Rockford, IL, USA) according to the manufacturer's instructions. Actin acted as the loading control.
Figure S3. Q7 repressed the phosphorylation of AKT-kinase.
After 6 h incubation of Q7 (100 µM), sQ7 and nACP, the AKT protein expression of
HEC-1-A cells was detected by using western blotting.
(1 picture or pasted object on this page, not shown here)

[5] = HEC-1-A, MTT, 48 h, mean ± SD, read-out: IC50 (50% decrease of cell viability)

Molecule | IC50 [1, 5] [µM] | IC50 [2] [µM] | other results
CSCC[C@H](N)C(=O)N[C@@H](CCC(=O)O)C(=O)N[C@@H](Cc1ccccc1)C(=O)N[C@H](C(=O)N[C@@H](C)C(=O)N[C@@H](CCCCN)C(=O)N[C@@H](CC(C)C)C(=O)N[C@@H](Cc1ccccc1)C(=O)N[C@@H](CCCCN)C(=O)N[C@@H](Cc1ccccc1)C(=O)N[C@@H](Cc1ccccc1)C(=O)N[C@@H](CCCCN)C(=O)N[C@@H](CC(=O)O)C(=O)N[C@@H](CC(C)C)C(=O)N[C@@H](CC(C)C)C(=O)NCC(=O)N[C@@H](CCCCN)C(=O)N[C@@H](Cc1ccccc1)C(=O)N[C@@H](CC(C)C)C(=O)NCC(=O)N[C@@H](CC(N)=O)C(=O)N[C@@H](CC(N)=O)C(=O)O)C(C)C [ACP NO. 3] | 8.78 ± 0.77 | 9.72 ± 0.84 | 
EQQQQQQPQNRRFRE [Q7] |  |  | IC50 ([1]; 48 h): 130 ± 7.53 µM
FKGGGPYGQGVTRGQDLSGKDF [ACP NO. 1] | 27.5 ± 2.5 | 29.1 ± 1.72 | 
GLLGVLGSVAKHVLPHVVPVIAEHL [ACP NO. 8] | 23.7 ± 2.19 | 26.1 ± 2.38 | 
RQPQNQRQEQFQEQR [sQ7, reference compound] |  |  | IC50 ([1]; HEC-1-A, MTT, 0-400 μM, 48 h (Fig. 1A), mean ± SD, read-out: fifty percent of growth inhibition concentration (IC50)): 158 ± 13.9 µM
nACP: non-ACP (nACP), human HSP27_36-50 (PRLPEEWSQWLGGSS; UniProt P04792 36-50, looked up, fragment) |  |  | toxic effects on HEC-1-A cells ([1]; MTT, 48 h, up to 400 μM): not obviously toxic effects; wound closure rate [3]: 85%; level of phosphorylation of AKT [4]: no obvious effect
